Data from US11192877B2, “3-(5-hydroxy-1-oxoisoindolin-2-yl)piperidine-2,6-dione derivatives and uses thereof” (Novartis AG, priority 2018, dated 2021).
Read-outs that look alike come from different tables or passages of the source.

Molecular target: IKZF2 (Helios) (Homo sapiens, UniProt Q96SW2+Q9UKS7)
Assay: Prolabel quantification of IKZF2 protein levels in 293GT cells
Assay type: cell-based
Details: 24 h, read-out: IKZF2 % protein reduction at 10 μM, 24 h
[1] = Pro-label assay, 293GT cells, 10 μM

IKZF2 (Helios), sequence (Q9UKS7 whole entry): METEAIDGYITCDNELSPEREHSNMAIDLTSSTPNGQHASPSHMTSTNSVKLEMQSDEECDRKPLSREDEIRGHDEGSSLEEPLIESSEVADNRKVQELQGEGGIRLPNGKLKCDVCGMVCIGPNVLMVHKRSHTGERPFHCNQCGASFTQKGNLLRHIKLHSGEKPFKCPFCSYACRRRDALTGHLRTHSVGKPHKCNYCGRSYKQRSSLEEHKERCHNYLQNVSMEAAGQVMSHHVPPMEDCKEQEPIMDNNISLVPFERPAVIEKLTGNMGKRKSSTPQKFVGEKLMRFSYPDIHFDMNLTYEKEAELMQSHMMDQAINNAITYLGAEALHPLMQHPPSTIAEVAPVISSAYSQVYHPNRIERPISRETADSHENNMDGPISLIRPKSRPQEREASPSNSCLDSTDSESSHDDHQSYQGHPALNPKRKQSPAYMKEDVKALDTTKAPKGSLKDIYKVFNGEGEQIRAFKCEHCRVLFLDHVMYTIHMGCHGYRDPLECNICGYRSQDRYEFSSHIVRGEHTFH
IKZF2 (Helios), sequence (Q96SW2 whole entry): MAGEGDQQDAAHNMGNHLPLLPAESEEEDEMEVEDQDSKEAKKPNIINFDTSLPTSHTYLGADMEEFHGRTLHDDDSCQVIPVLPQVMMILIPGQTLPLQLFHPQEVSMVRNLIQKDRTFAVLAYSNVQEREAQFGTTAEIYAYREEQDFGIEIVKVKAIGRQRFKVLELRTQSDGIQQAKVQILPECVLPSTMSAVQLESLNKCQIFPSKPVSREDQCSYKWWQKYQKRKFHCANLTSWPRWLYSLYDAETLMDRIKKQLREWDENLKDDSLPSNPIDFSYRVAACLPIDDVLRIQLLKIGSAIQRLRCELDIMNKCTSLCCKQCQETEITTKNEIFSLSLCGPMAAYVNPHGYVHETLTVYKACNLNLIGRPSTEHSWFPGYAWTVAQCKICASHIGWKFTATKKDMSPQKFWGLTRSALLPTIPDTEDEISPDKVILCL
IKZF2 (Helios), sequence (Q16531 whole entry partner): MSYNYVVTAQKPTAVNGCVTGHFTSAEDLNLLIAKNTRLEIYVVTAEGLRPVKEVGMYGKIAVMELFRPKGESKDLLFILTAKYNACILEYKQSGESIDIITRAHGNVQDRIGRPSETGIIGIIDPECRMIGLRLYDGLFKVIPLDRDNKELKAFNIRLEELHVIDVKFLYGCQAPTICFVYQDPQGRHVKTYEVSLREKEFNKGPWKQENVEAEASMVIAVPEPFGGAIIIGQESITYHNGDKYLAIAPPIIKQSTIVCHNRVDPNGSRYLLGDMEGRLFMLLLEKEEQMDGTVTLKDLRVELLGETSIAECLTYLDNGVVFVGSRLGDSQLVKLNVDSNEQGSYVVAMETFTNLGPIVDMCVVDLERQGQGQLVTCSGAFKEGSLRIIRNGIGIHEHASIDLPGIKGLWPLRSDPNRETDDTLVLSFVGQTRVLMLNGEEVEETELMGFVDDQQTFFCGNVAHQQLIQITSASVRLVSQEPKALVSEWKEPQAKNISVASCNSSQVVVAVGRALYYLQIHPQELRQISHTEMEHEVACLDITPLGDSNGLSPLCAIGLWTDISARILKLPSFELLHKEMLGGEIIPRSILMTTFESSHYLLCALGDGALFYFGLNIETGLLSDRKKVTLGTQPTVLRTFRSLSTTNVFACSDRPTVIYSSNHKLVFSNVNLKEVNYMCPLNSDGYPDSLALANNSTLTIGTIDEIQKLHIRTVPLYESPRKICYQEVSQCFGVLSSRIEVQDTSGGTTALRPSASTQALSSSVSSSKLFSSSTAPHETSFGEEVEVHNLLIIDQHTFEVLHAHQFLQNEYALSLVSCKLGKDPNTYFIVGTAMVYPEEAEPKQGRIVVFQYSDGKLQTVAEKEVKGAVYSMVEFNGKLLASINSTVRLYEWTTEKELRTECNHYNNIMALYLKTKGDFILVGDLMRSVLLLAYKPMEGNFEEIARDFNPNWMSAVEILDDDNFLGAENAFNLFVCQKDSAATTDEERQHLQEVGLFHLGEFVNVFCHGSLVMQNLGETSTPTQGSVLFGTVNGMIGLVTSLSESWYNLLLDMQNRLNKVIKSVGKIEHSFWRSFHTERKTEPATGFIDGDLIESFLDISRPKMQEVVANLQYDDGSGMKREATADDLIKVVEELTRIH

SMILES | IKZF2 % protein reduction at 10 µM [1] | IKZF2 % protein reduction at 10 µM
CC1(O)CN([C@H]2CCC[C@@H]2Oc2ccc3c(c2)CN(C2CCC(=O)NC2=O)C3=O)C1 (stereo partly drawn) [I-141, 3-(5-(((1S,2S)-2-(3-hydroxy-3-methylazetidin-1-yl)cyclopentyl)oxy)-1-oxoisoindolin-2-yl)piperidine-2,6-dione] | 77% | –
CC(C)CN[C@H]1CCC[C@@H]1Oc1ccc2c(c1)CN(C1CCC(=O)NC1=O)C2=O (stereo partly drawn) [I-142, 3-(5-(((1S,2S)-2-(isobutylamino)cyclopentyl)oxy)-1-oxoisoindolin-2-yl)piperidine-2,6-dione] | 83% | –
CCN(C)[C@H]1CCC[C@@H]1Oc1ccc2c(c1)CN(C1CCC(=O)NC1=O)C2=O (stereo partly drawn) [I-143, 3-(5-(((1S,2S)-2-(ethyl(methyl)amino)cyclopentyl)oxy)-1-oxoisoindolin-2-yl)piperidine-2,6-dione] | 81% | –
O=C1CCC(N2Cc3cc(O[C@H]4CCC[C@@H]4N4C[C@H]5COC[C@H]5C4)ccc3C2=O)C(=O)N1 (stereo partly drawn) [I-144, 3-(1-oxo-5-(((1S,2S)-2-((3aR,6aS)-tetrahydro-1H-furo[3,4-c]pyrrol-5(3H)-yl)cyclopentyl)oxy)isoindolin-2-yl)piperidine-2,6-dione] | 88% | –
O=C1CCC(N2Cc3cc(O[C@H]4CCC[C@@H]4NCc4ccccn4)ccc3C2=O)C(=O)N1 (stereo partly drawn) [I-145, 3-(1-oxo-5-(((1S,2S)-2-((pyridin-2-ylmethyl)amino)cyclopentyl)oxy)isoindolin-2-yl)piperidine-2,6-dione] | 52% | –
O=C1CCC(N2Cc3cc(O[C@H]4CCC[C@@H]4N4CCCC4)ccc3C2=O)C(=O)N1 (stereo partly drawn) [I-146, 3-(1-oxo-5-(((1S,2S)-2-(pyrrolidin-1-yl)cyclopentyl)oxy)isoindolin-2-yl)piperidine-2,6-dione] | 83% | –
O=C1CCC(N2Cc3cc(O[C@H]4CCC[C@@H]4N4CC5(COC5)C4)ccc3C2=O)C(=O)N1 (stereo partly drawn) [I-147, 3-(5-(((1S,2S)-2-(2-oxa-6-azaspiro[3.3]heptan-6-yl)cyclopentyl)oxy)-1-oxoisoindolin-2-yl)piperidine-2,6-dione] | 44% | –
CC1(CN(CC2(C)COC2)[C@H]2CCC[C@@H]2Oc2ccc3c(c2)CN(C2CCC(=O)NC2=O)C3=O)COC1 (stereo partly drawn) [I-148, 3-(5-(((1S,2S)-2-(bis((3-methyloxetan-3-yl)methyl)amino)cyclopentyl)oxy)-1-oxoisoindolin-2-yl)piperidine-2,6-dione] | 33% | –
CC1CCN([C@H]2CCC[C@@H]2Oc2ccc3c(c2)CN(C2CCC(=O)NC2=O)C3=O)CC1 (stereo partly drawn) [I-149, 3-(5-(((1S,2S)-2-(4-methylpiperidin-1-yl)cyclopentyl)oxy)-1-oxoisoindolin-2-yl)piperidine-2,6-dione] | 77% | –
O=C1CCC(N2Cc3cc(O[C@H]4CCC[C@@H]4NCc4cccnc4)ccc3C2=O)C(=O)N1 (stereo partly drawn) [I-150, 3-(1-oxo-5-(((1S,2S)-2-((pyridin-3-ylmethyl)amino)cyclopentyl)oxy)isoindolin-2-yl)piperidine-2,6-dione] | – | 51%
O=C1CCC(N2Cc3cc(O[C@H]4CCC[C@@H]4NCc4ccncc4)ccc3C2=O)C(=O)N1 (stereo partly drawn) [I-151, 3-(1-oxo-5-(((1S,2S)-2-((pyridin-4-ylmethyl)amino)cyclopentyl)oxy)isoindolin-2-yl)piperidine-2,6-dione] | 53% | –
COC1(C)CCN([C@H]2CCC[C@@H]2Oc2ccc3c(c2)CN(C2CCC(=O)NC2=O)C3=O)CC1 (stereo partly drawn) [I-152, 3-(5-(((1S,2S)-2-(4-methoxy-4-methylpiperidin-1-yl)cyclopentyl)oxy)-1-oxoisoindolin-2-yl)piperidine-2,6-dione] | 82% | –
CC1(C)CCN([C@H]2CCC[C@@H]2Oc2ccc3c(c2)CN(C2CCC(=O)NC2=O)C3=O)CC1 (stereo partly drawn) [I-153, 3-(5-(((1S,2S)-2-(4,4-dimethylpiperidin-1-yl)cyclopentyl)oxy)-1-oxoisoindolin-2-yl)piperidine-2,6-dione] | – | 85%
COC1CCN([C@H]2CCC[C@@H]2Oc2ccc3c(c2)CN(C2CCC(=O)NC2=O)C3=O)CC1 (stereo partly drawn) [I-154, 3-(5-(((1S,2S)-2-(4-methoxypiperidin-1-yl)cyclopentyl)oxy)-1-oxoisoindolin-2-yl)piperidine-2,6-dione] | 83% | –
CCN(CC1COC1)[C@H]1CCC[C@@H]1Oc1ccc2c(c1)CN(C1CCC(=O)NC1=O)C2=O (stereo partly drawn) [I-155, 3-(5-(((1S,2S)-2-(ethyl(oxetan-3-ylmethyl)amino)cyclopentyl)oxy)-1-oxoisoindolin-2-yl)piperidine-2,6-dione] | 65% | –
N#C[C@H]1CC[C@H](CN[C@H]2CCC[C@@H]2Oc2ccc3c(c2)CN(C2CCC(=O)NC2=O)C3=O)CC1 (stereo partly drawn) [I-160, (1S,4r)-4-((((1S,2S)-2-((2-(2,6-dioxopiperidin-3-yl)-1-oxoisoindolin-5-yl)oxy)cyclopentyl)amino)methyl)cyclohexane-1-carbonitrile] | – | 75%
O=C1CCC(N2Cc3cc(O[C@H]4CCC[C@@H]4N4CCC(F)CC4)ccc3C2=O)C(=O)N1 (stereo partly drawn) [I-166, 3-(5-(((1S,2S)-2-(4-fluoropiperidin-1-yl)cyclopentyl)oxy)-1-oxoisoindolin-2-yl)piperidine-2,6-dione] | – | 81%
CCN(C[C@H]1CC[C@H](OC)CC1)[C@H]1CCC[C@@H]1Oc1ccc2c(c1)CN(C1CCC(=O)NC1=O)C2=O (stereo partly drawn) [I-170, 3-(5-(((1S,2S)-2-(ethyl(((1r,4S)-4-methoxycyclohexyl)methyl)amino)cyclopentyl)oxy)-1-oxoisoindolin-2-yl)piperidine-2,6-dione] | – | 67%
O=C1CCC(N2Cc3cc(O[C@H]4CCC[C@@H]4N4CCC(OCC5CC5)CC4)ccc3C2=O)C(=O)N1 (stereo partly drawn) [I-186, 3-(5-(((1S,2S)-2-(4-(cyclopropylmethoxy)piperidin-1-yl)cyclopentyl)oxy)-1-oxoisoindolin-2-yl)piperidine-2,6-dione] | – | 86%

The next lines start with results.

IKZF2 % protein reduction at 10 µM [1] | SMILES | IKZF2 % protein reduction at 10 µM
70% | O=C1CCC(N2Cc3cc(O[C@H]4CCC[C@@H]4N4Cc5ccccc5C4)ccc3C2=O)C(=O)N1 (stereo partly drawn) [I-156, 3-(5-(((1S,2S)-2-(isoindolin-2-yl)cyclopentyl)oxy)-1-oxoisoindolin-2-yl)piperidine-2,6-dione] | –
61% | COC1CN([C@H]2CCC[C@@H]2Oc2ccc3c(c2)CN(C2CCC(=O)NC2=O)C3=O)C1 (stereo partly drawn) [I-157, 3-(5-(((1S,2S)-2-(3-methoxyazetidin-1-yl)cyclopentyl)oxy)-1-oxoisoindolin-2-yl)piperidine-2,6-dione] | –
82% | CCOC1(C)CCN([C@H]2CCC[C@@H]2Oc2ccc3c(c2)CN(C2CCC(=O)NC2=O)C3=O)CC1 (stereo partly drawn) [I-158, 3-(5-(((1S,2S)-2-(4-ethoxy-4-methylpiperidin-1-yl)cyclopentyl)oxy)-1-oxoisoindolin-2-yl)piperidine-2,6-dione] | –
75% | CO[C@H]1CC[C@H](CN[C@H]2CCC[C@@H]2Oc2ccc3c(c2)CN(C2CCC(=O)NC2=O)C3=O)CC1 (stereo partly drawn) [I-159, 3-(5-(((1S,2S)-2-((((1r,4S)-4-methoxycyclohexyl)methyl)amino)cyclopentyl)oxy)-1-oxoisoindolin-2-yl)piperidine-2,6-dione] | –
80% | COC1CCC(CN[C@H]2CCC[C@@H]2Oc2ccc3c(c2)CN(C2CCC(=O)NC2=O)C3=O)CC1 (stereo partly drawn) [I-161, 3-(5-(((1S,2S)-2-(((4-methoxycyclohexyl)methyl)amino)cyclopentyl)oxy)-1-oxoisoindolin-2-yl)piperidine-2,6-dione] | –
78% | CCN(CC1CC(C)(C#N)C1)[C@H]1CCC[C@@H]1Oc1ccc2c(c1)CN(C1CCC(=O)NC1=O)C2=O (stereo partly drawn) [I-163, 3-((((1S,2S)-2-((2-(2,6-dioxopiperidin-3-yl)-1-oxoisoindolin-5-yl)oxy)cyclopentyl)(ethyl)amino)methyl)-1-methylcyclobutane-1-carbonitrile] | –
75% | O=C1CCC(N2Cc3cc(O[C@H]4CCC[C@@H]4N4CCCOCCC4)ccc3C2=O)C(=O)N1 (stereo partly drawn) [I-167, 3-(5-(((1S,2S)-2-(1,5-oxazocan-5-yl)cyclopentyl)oxy)-1-oxoisoindolin-2-yl)piperidine-2,6-dione] | –
74% | CO[C@H]1CC[C@H](CN(C)[C@H]2CCC[C@@H]2Oc2ccc3c(c2)CN(C2CCC(=O)NC2=O)C3=O)CC1 (stereo partly drawn) [I-171, 3-(5-(((1S,2S)-2-((((1R,4S)-4-methoxycyclohexyl)methyl)(methyl)amino)cyclopentyl)oxy)-1-oxoisoindolin-2-yl)piperidine-2,6-dione] | –
84% | O=C1CCC(N2Cc3cc(O[C@H]4CCC[C@@H]4NCC4CCC(F)(F)CC4)ccc3C2=O)C(=O)N1 (stereo partly drawn) [I-173, 3-(5-(((1S,2S)-2-(((4,4-difluorocyclohexyl)methyl)amino)cyclopentyl)oxy)-1-oxoisoindolin-2-yl)piperidine-2,6-dione] | –
86% | O=C1CCC(N2Cc3cc(O[C@H]4CCC[C@@H]4NCc4ccc5[nH]ccc5c4)ccc3C2=O)C(=O)N1 (stereo partly drawn) [I-174, 3-(5-(((1S,2S)-2-(((1H-indol-5-yl)methyl)amino)cyclopentyl)oxy)-1-oxoisoindolin-2-yl)piperidine-2,6-dione] | –
92% | O=C1CCC(N2Cc3cc(O[C@H]4CCC[C@@H]4N4CC(Oc5ccccc5Cl)C4)ccc3C2=O)C(=O)N1 (stereo partly drawn) [I-177, 3-(5-(((1S,2S)-2-(3-(2-chlorophenoxy)azetidin-1-yl)cyclopentyl)oxy)-1-oxoisoindolin-2-yl)piperidine-2,6-dione] | –
92% | COc1ccccc1OC1CN([C@H]2CCC[C@@H]2Oc2ccc3c(c2)CN(C2CCC(=O)NC2=O)C3=O)C1 (stereo partly drawn) [I-178, 3-(5-(((1S,2S)-2-(3-(2-methoxyphenoxy)azetidin-1-yl)cyclopentyl)oxy)-1-oxoisoindolin-2-yl)piperidine-2,6-dione] | –
81% | CCN(C[C@H]1C[C@@H](OC)C1)[C@H]1CCC[C@@H]1Oc1ccc2c(c1)CN(C1CCC(=O)NC1=O)C2=O (stereo partly drawn) [I-180, 3-(5-(((1S,2S)-2-(ethyl(((1s,3R)-3-methoxycyclobutyl)methyl)amino)cyclopentyl)oxy)-1-oxoisoindolin-2-yl)piperidine-2,6-dione] | –
